PubChem BioAssay AID256 (DTP/NCI, 2004)
“And” between values parts separate entries of the source, which are not always exact repeats. Identical values can stand only once. Toxic doses and inconclusive results are not listed. How the source made its calls: active means survival T/C of 150% or more; inactive means T/C below 125% in these data.

System: CD2F1 mice, L1210 leukemia ip, survival T/C
Experiment: NCI In Vivo Anticancer Drug Screen. Data for tumor model L1210 Leukemia (intraperitoneal) in CD2F1 (CDF1) mice
Details: higher = longer survival
Outline: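 Compound-dosed mice with transplantable tumor versus matched vehicle controls; endpoint ratio T/C reported.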

[1] = endpoint: mean survival time, dose: 12.5 mg/kg/injection, schedule: Q01DX005 (ip), vehicle: water
[2] = endpoint: mean survival time, dose: 25.0 mg/kg/injection, schedule: Q01DX005 (ip), vehicle: water
[3] = endpoint: mean survival time, dose: 50.0 mg/kg/injection, schedule: Q01DX005 (ip), vehicle: water
[4] = endpoint: mean survival time, dose: 100.0 mg/kg/injection, schedule: Q01DX009 (ip), vehicle: saline with Tween-80
[5] = endpoint: mean survival time, dose: 200.0 mg/kg/injection, schedule: Q01DX009 (ip), vehicle: saline with Tween-80
[6] = endpoint: mean survival time, dose: 400.0 mg/kg/injection, schedule: Q01DX009 (ip), vehicle: saline with Tween-80
[7] = endpoint: mean survival time, dose: 100.0 mg/kg/injection, schedule: Q04DX003 (ip), vehicle: saline with Tween-80
[8] = endpoint: mean survival time, dose: 200.0 mg/kg/injection, schedule: Q04DX003 (ip), vehicle: saline with Tween-80
[9] = endpoint: mean survival time, dose: 400.0 mg/kg/injection, schedule: Q04DX003 (ip), vehicle: saline with Tween-80
[10] = endpoint: mean survival time, dose: 100.0 mg/kg/injection, schedule: Q01DX001 (ip), vehicle: saline with Tween-80
[11] = endpoint: mean survival time, dose: 200.0 mg/kg/injection, schedule: Q01DX001 (ip), vehicle: saline with Tween-80
[12] = endpoint: mean survival time, dose: 400.0 mg/kg/injection, schedule: Q01DX001 (ip), vehicle: saline with Tween-80
[13] = endpoint: mean survival time, dose: 25.0 mg/kg/injection, schedule: Q01DX009 (ip), vehicle: saline with Tween-80
[14] = endpoint: mean survival time, dose: 50.0 mg/kg/injection, schedule: Q01DX009 (ip), vehicle: saline with Tween-80
[15] = endpoint: mean survival time, dose: 50.0 mg/kg/injection, schedule: Q04DX003 (ip), vehicle: saline

Measured: T/C

OCC1OC(n2cc(I)c3c2ncn2nnnc32)C(O)C1O (centres undefined)
inactive: endpoint: mean survival time, dose: 1.56 mg/kg/injection, schedule: Q01DX005 (ip), vehicle: water 88 % of control | endpoint: mean survival time, dose: 3.13 mg/kg/injection, schedule: Q01DX005 (ip), vehicle: water 95 % of control | endpoint: mean survival time, dose: 6.25 mg/kg/injection, schedule: Q01DX005 (ip), vehicle: water 95 % of control | [1] 98 % of control | [2] 87 % of control and 97 % of control | [3] 97 % of control

O=C(O)c1ccccn1
inactive: endpoint: mean survival time, dose: 50.0 mg/kg/injection, schedule: Q04HX027 (ip), vehicle: saline 102 % of control | endpoint: mean survival time, dose: 100.0 mg/kg/injection, schedule: Q04HX027 (ip), vehicle: saline 93 % of control

c1cc2nc(c1)CSCCCCCCCSC2
inactive: [4] 98 % of control | [5] 90 % of control | [6] 93 % of control

CC1=C/C(=N\Nc2ccccc2)C(C(O)(C(F)(F)Cl)C(F)(F)Cl)C(C)(C)C1 (centres undefined)
inactive: [7] 96 % of control | [8] 94 % of control | [9] 93 % of control

BrC1C(Br)C2C3C=CC(c4ccccc43)C12 (centres undefined)
inactive: [4] 91 % of control | [7] 98 % of control | [5] 94 % of control | [8] 98 % of control | [6] 89 % of control | [9] 96 % of control

O=C(C[n+]1csc2ccccc21)c1ccccc1
inactive: [4] 106 % of control | [7] 97 % of control | [5] 92 % of control | [8] 106 % of control | [6] 87 % of control | [9] 109 % of control

CC1=C(c2ccccc2)C(c2ccccc2)c2ccccc21 (centres undefined)
inactive: [10] 94 % of control | [11] 93 % of control | [12] 92 % of control

C=CC1=CC(=O)OC1=O
inactive: endpoint: mean survival time, dose: 1.25 mg/kg/injection, schedule: Q01DX001 (ip), vehicle: saline 91 % of control | endpoint: mean survival time, dose: 2.5 mg/kg/injection, schedule: Q01DX001 (ip), vehicle: saline 88 % of control | endpoint: mean survival time, dose: 5.0 mg/kg/injection, schedule: Q01DX001 (ip), vehicle: saline 89 % of control | endpoint: mean survival time, dose: 10.0 mg/kg/injection, schedule: Q01DX001 (ip), vehicle: saline 89 % of control

CC(C)C(=O)Nc1cccc(Cl)c1
inactive: [7] 97 % of control | [8] 97 % of control | [9] 94 % of control

COc1cccc(CN2CCN(N=O)CC2)c1
inactive: endpoint: mean survival time, dose: 12.5 mg/kg/injection, schedule: Q01DX009 (ip), vehicle: Klucel (hydroxypropylcellulose) (HPC) 98 % of control | endpoint: mean survival time, dose: 25.0 mg/kg/injection, schedule: Q01DX009 (ip), vehicle: Klucel (hydroxypropylcellulose) (HPC) 93 % of control | endpoint: mean survival time, dose: 50.0 mg/kg/injection, schedule: Q01DX009 (ip), vehicle: Klucel (hydroxypropylcellulose) (HPC) 103 % of control | endpoint: mean survival time, dose: 100.0 mg/kg/injection, schedule: Q01DX009 (ip), vehicle: Klucel (hydroxypropylcellulose) (HPC) 103 % of control | endpoint: mean survival time, dose: 200.0 mg/kg/injection, schedule: Q01DX009 (ip), vehicle: Klucel (hydroxypropylcellulose) (HPC) 101 % of control | endpoint: mean survival time, dose: 400.0 mg/kg/injection, schedule: Q01DX009 (ip), vehicle: Klucel (hydroxypropylcellulose) (HPC) 93 % of control

Cc1cc(C)c(/C(O)=C/C(=S)N2CCOCC2)c(C)c1
inactive: [7] 98 % of control | [8] 98 % of control | [9] 98 % of control

CC(C)C(=O)Nc1nc(OCCc2ccc([N+](=O)[O-])cc2)c2ncn(C3CC(O)C(CO)O3)c2n1 (centres undefined)
inactive: endpoint: median survival time, dose: 12.5 mg/kg/injection, schedule: Q01DX005 (ip), vehicle: saline with Tween-80 101 % of control | endpoint: median survival time, dose: 25.0 mg/kg/injection, schedule: Q01DX005 (ip), vehicle: saline with Tween-80 97 % of control | endpoint: median survival time, dose: 50.0 mg/kg/injection, schedule: Q01DX005 (ip), vehicle: saline with Tween-80 97 % of control | endpoint: median survival time, dose: 100.0 mg/kg/injection, schedule: Q01DX005 (ip), vehicle: saline with Tween-80 95 % of control | endpoint: median survival time, dose: 200.0 mg/kg/injection, schedule: Q01DX005 (ip), vehicle: saline with Tween-80 86 % of control

CC(=O)Nc1ccc(CCc2nc(NC(C)=O)nc(Cl)c2-c2ccc(Cl)c(Cl)c2)cc1
inactive: endpoint: mean survival time, dose: 75.0 mg/kg/injection, schedule: Q01DX001 (ip), vehicle: saline with Tween-80 103 % of control | endpoint: mean survival time, dose: 150.0 mg/kg/injection, schedule: Q01DX001 (ip), vehicle: saline with Tween-80 101 % of control | endpoint: mean survival time, dose: 300.0 mg/kg/injection, schedule: Q01DX001 (ip), vehicle: saline with Tween-80 94 % of control

Cc1ccc(NC(=O)Nc2ccccc2C(N)=O)cc1C
inactive: endpoint: mean survival time, dose: 12.5 mg/kg/injection, schedule: Q01DX009 (ip), vehicle: saline with Tween-80 95 % of control | [13] 102 % of control | [14] 95 % of control | [4] 92 % of control | [5] 92 % of control

COc1cc(/C=C/c2ccccn2)cc(OC)c1OC
inactive: [7] 101 % of control | [8] 91 % of control

Nc1cc2c(ncn2C2OC(CO)C(O)C2O)c(=O)n1N (centres undefined)
inactive: endpoint: mean survival time, dose: 12.5 mg/kg/injection, schedule: Q01DX005 (ip), vehicle: distilled water + Tween-80 96 % of control | endpoint: mean survival time, dose: 25.0 mg/kg/injection, schedule: Q01DX005 (ip), vehicle: distilled water + Tween-80 97 % of control | endpoint: mean survival time, dose: 50.0 mg/kg/injection, schedule: Q01DX005 (ip), vehicle: distilled water + Tween-80 105 % of control | endpoint: mean survival time, dose: 100.0 mg/kg/injection, schedule: Q01DX005 (ip), vehicle: distilled water + Tween-80 94 % of control | endpoint: mean survival time, dose: 200.0 mg/kg/injection, schedule: Q01DX005 (ip), vehicle: distilled water + Tween-80 94 % of control

CCOC(=O)C(C(=O)OCC)[N+](=O)[O-]
inactive: [15] 102 % of control | endpoint: mean survival time, dose: 100.0 mg/kg/injection, schedule: Q01DX001 (ip), vehicle: saline 97 % of control | endpoint: mean survival time, dose: 100.0 mg/kg/injection, schedule: Q04DX003 (ip), vehicle: saline 100 % of control | endpoint: mean survival time, dose: 200.0 mg/kg/injection, schedule: Q01DX001 (ip), vehicle: saline 95 % of control | endpoint: mean survival time, dose: 200.0 mg/kg/injection, schedule: Q04DX003 (ip), vehicle: saline 105 % of control

C1CC2CC1C1OC21 (centres undefined)
inactive: endpoint: mean survival time, dose: 100.0 mg/kg/injection, schedule: Q04DX003 (ip), vehicle: other 94 % of control | endpoint: mean survival time, dose: 200.0 mg/kg/injection, schedule: Q04DX003 (ip), vehicle: other 96 % of control | endpoint: mean survival time, dose: 400.0 mg/kg/injection, schedule: Q04DX003 (ip), vehicle: other 91 % of control

Cc1cc(N)c(C)c([N+](=O)[O-])c1
inactive: [7] 103 % of control | [8] 101 % of control | [9] 92 % of control

CSC(Cl)=C(Cl)Cl
inactive: [13] 97 % of control | [14] 95 % of control | [4] 97 % of control

c1ccc(-c2ccccc2NC2=NCCO2)cc1
inactive: endpoint: mean survival time, dose: 12.5 mg/kg/injection, schedule: Q04DX003 (ip), vehicle: saline 94 % of control | endpoint: mean survival time, dose: 25.0 mg/kg/injection, schedule: Q04DX003 (ip), vehicle: saline 94 % of control | [15] 90 % of control

CC(CC(O)(c1ccccc1)c1ccccc1)C(F)(F)F (centres undefined)
inactive: [4] 100 % of control | [7] 94 % of control | [5] 95 % of control | [8] 96 % of control | [6] 98 % of control | [9] 97 % of control

Nc1ncnc2c1ncn2CCC(=O)O
inactive: [10] 94 % of control | endpoint: mean survival time, dose: 100.0 mg/kg/injection, schedule: Q04DX002 (ip), vehicle: saline with Tween-80 105 % of control | [11] 92 % of control | endpoint: mean survival time, dose: 200.0 mg/kg/injection, schedule: Q04DX002 (ip), vehicle: saline with Tween-80 97 % of control | [12] 90 % of control | endpoint: mean survival time, dose: 400.0 mg/kg/injection, schedule: Q04DX002 (ip), vehicle: saline with Tween-80 105 % of control

NP(=O)(OCCCOCc1ccccc1)N(CCCl)CCCl (centres undefined)
inactive: [1] 95 % of control | [2] 94 % of control | [3] 100 % of control | endpoint: mean survival time, dose: 100.0 mg/kg/injection, schedule: Q01DX005 (ip), vehicle: water 100 % of control | endpoint: mean survival time, dose: 200.0 mg/kg/injection, schedule: Q01DX005 (ip), vehicle: water 101 % of control

[Cl][Pt][Cl].[NH-]NC(=O)c1ccncc1
inactive: endpoint: mean survival time, dose: 12.5 mg/kg/injection, schedule: Q04DX003 (ip), vehicle: saline with Tween-80 95 % of control | endpoint: mean survival time, dose: 25.0 mg/kg/injection, schedule: Q04DX003 (ip), vehicle: saline with Tween-80 94 % of control | endpoint: mean survival time, dose: 50.0 mg/kg/injection, schedule: Q04DX003 (ip), vehicle: saline with Tween-80 91 % of control | [7] 94 % of control | [8] 88 % of control
